Test systems include HCT-116 colon; SF-295 CNS; SF-268 CNS; K-562 leukemia; OVCAR-5 ovarian; 786-0 renal; NCI-H226 lung; HCT-15 colon; SK-MEL-2 melanoma; SNB-19 CNS; NCI-H522 lung; MOLT-4 leukemia; U251 CNS; TK-10 renal; CAKI-1 renal.
Holding throughout (assay): NCI tumour cell line growth inhibition, 48 h

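Tested at 5 concentrations; 48 h exposure; 96-well plates; endpoints linearly interpolated, else capped at highest concentration. The concentration for 50% growth inhibition is given as GI50. TGI: total growth inhibition.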

In the case of `CCCN(CCC)C1=Nc2ccccc2-n2cnnc2C1`, the TGI in the assay with HCT-116 colon, with SF-295 CNS, in the assay with SF-268 CNS, in the assay on K-562 leukemia, in the assay on OVCAR-5 ovarian and in the assay on 786-0 renal was greater than 100 µM each time. Also, the TGI in the assay with NCI-H226 lung, in the assay with HCT-15 colon, in the assay on SK-MEL-2 melanoma, in the assay on SNB-19 CNS, in the assay with NCI-H522 lung and with MOLT-4 leukemia was greater than 100 µM in each case. Also, the TGI in the assay with U251 CNS and with TK-10 renal was greater than 100 µM each time.
Take `COC(=O)C1(C)NCCc2c1[nH]c1ccccc21` (stereo not drawn): the TGI with HCT-116 colon, with SF-295 CNS, in the assay on SF-268 CNS, in the assay with K-562 leukemia, in the assay on OVCAR-5 ovarian and in the assay on 786-0 renal was greater than 100 µM throughout. For the same molecule, the TGI in the assay with HCT-15 colon, with SK-MEL-2 melanoma, in the assay with CAKI-1 renal, in the assay with SNB-19 CNS, in the assay with NCI-H522 lung and in the assay with MOLT-4 leukemia was greater than 100 µM in each case. Moreover, the TGI in the assay with U251 CNS and in the assay with TK-10 renal was greater than 100 µM throughout.
On to `COc1ccc(-c2cc(=O)c3c(O)cc(O)cc3o2)c(OC)c1OC`, for which the TGI in the assay with SF-295 CNS, with SF-268 CNS, in the assay on K-562 leukemia, in the assay on OVCAR-5 ovarian, in the assay on 786-0 renal and with NCI-H226 lung was greater than 100 µM throughout. In addition, the TGI with SK-MEL-2 melanoma, in the assay with CAKI-1 renal, in the assay on SNB-19 CNS, in the assay on NCI-H522 lung and in the assay with TK-10 renal was greater than 100 µM each time.
With `COc1cc(C=O)cc(O)c1O`, the TGI with HCT-116 colon, in the assay on SF-295 CNS, in the assay with SF-268 CNS, in the assay with K-562 leukemia, in the assay on 786-0 renal and in the assay on NCI-H226 lung was greater than 100 µM each time. Moreover, the TGI in the assay on HCT-15 colon, in the assay on SNB-19 CNS, with NCI-H522 lung, in the assay with MOLT-4 leukemia, in the assay with U251 CNS and with TK-10 renal was greater than 100 µM throughout.
With `CC1=C2C3OC(=O)C(C)C3CCC2(C)C=CC1=Nc1ccccc1` (stereo not drawn), the TGI in the assay on HCT-116 colon, in the assay with SF-295 CNS, in the assay with SF-268 CNS, with K-562 leukemia, in the assay on OVCAR-5 ovarian and with NCI-H226 lung was greater than 100 µM throughout. Further, the TGI in the assay with HCT-15 colon, in the assay on SK-MEL-2 melanoma, in the assay on SNB-19 CNS, in the assay on NCI-H522 lung, in the assay with MOLT-4 leukemia and in the assay on U251 CNS was greater than 100 µM each time.
For the molecule `CN(C(=O)c1ccc(OCCCC(=O)O)c(Cl)c1Cl)C1CCCC1`, the TGI with HCT-116 colon, in the assay on SF-295 CNS, in the assay on SF-268 CNS, with K-562 leukemia, in the assay on OVCAR-5 ovarian and in the assay on NCI-H226 lung was greater than 100 µM throughout. Also, the TGI in the assay with HCT-15 colon, in the assay on SK-MEL-2 melanoma, with CAKI-1 renal, in the assay on SNB-19 CNS, in the assay with NCI-H522 lung and with MOLT-4 leukemia was greater than 100 µM each time. Besides, the TGI with U251 CNS is greater than 100 µM.
As to `O=c1c([OH2+])c(-c2ccc(O)cc2[O-])oc2cc(O)cc([O-])c12.O=c1c([OH2+])c(-c2ccc(O)cc2[O-])oc2cc(O)cc([O-])c12.[Ti+4]`, the TGI in the assay on HCT-116 colon, in the assay on SF-295 CNS, with SF-268 CNS, with K-562 leukemia, in the assay on OVCAR-5 ovarian and with 786-0 renal was greater than 100 µM each time. Also, the TGI in the assay on NCI-H226 lung, in the assay with HCT-15 colon, in the assay with SK-MEL-2 melanoma, in the assay on CAKI-1 renal, in the assay with SNB-19 CNS and in the assay on NCI-H522 lung was greater than 100 µM in each case. For the same molecule, the TGI in the assay with MOLT-4 leukemia and in the assay with TK-10 renal was greater than 100 µM in each case. Besides, the GI50 in the assay with MOLT-4 leukemia was greater than 100 µM.
For `C=C1Cc2cc(OC)c(OC)c(OC)c2-c2ccc(SC)c(=O)cc21`, the TGI is 4.12 µM in the assay with SF-295 CNS; 1.42 µM in the assay on SF-268 CNS; greater than 34.8 µM in the assay with K-562 leukemia; 12.6 µM in the assay on OVCAR-5 ovarian; 1.8 µM with 786-0 renal; 0.188 µM in the assay on NCI-H226 lung. Moreover, the TGI is 1.17 µM in the assay with HCT-15 colon; less than 0.01 µM in the assay with SK-MEL-2 melanoma; 6.01 µM in the assay on CAKI-1 renal; 5.3 µM in the assay on SNB-19 CNS; less than 0.01 µM in the assay with NCI-H522 lung; 25.2 µM with MOLT-4 leukemia. In the assay on TK-10 renal, this molecule had a TGI of 6.83 µM.
Turning to `CCOC(=O)C1(Br)S(=O)(=O)OCCOS1(=O)=O`, the TGI in the assay with HCT-116 colon, in the assay with SF-295 CNS, with SF-268 CNS, in the assay on K-562 leukemia, in the assay with OVCAR-5 ovarian and in the assay with 786-0 renal was greater than 100 µM throughout. For the same molecule, the TGI with NCI-H226 lung, in the assay with HCT-15 colon, in the assay with SK-MEL-2 melanoma, in the assay with SNB-19 CNS, in the assay on NCI-H522 lung and with MOLT-4 leukemia was greater than 100 µM in each case. The TGI with U251 CNS and in the assay on TK-10 renal was greater than 100 µM throughout.

(Values after PubChem BioAssay (NCI).)
